This is an account of results in patent publication US20130121921A1, “Rodent Therapeutic Model And Methods” (The Christus Stehlin Foundation For Cancer Research, priority 2011, published 2013).

The conditions of series [1]: in the mouse, normal pH; cited from earlier work.
Series [2] has as its target human serum albumin (HSA) (Homo sapiens, UniProt P02768). As to conditions: human blood, equilibrium moved towards carboxylate by affinity for HSA; cited from earlier work.
A further series has as its system humanized NSG mice. In words: toxicity of CPT given by gavage to humanized and non-humanized NSG mice (weight, blood cell counts). Type of series: in vivo, mouse. How it is done:
Once maximum engraftment is reached as measured in Example 1 or 2, initial validation experiments are performed. A reasonable number of doubly humanized mice are obtained within approximately 5 to 6 months from the start of the humanizing process, i.e., 10-12 NSG mice with a >80% human BM and a >60% HSA in their blood. […] Camptothecin (CPT) is administered by gavage to humanized and non-humanized mice. At normal pH, CPT exists in equilibrium between two states: lactone and carboxylate. In the mouse, equilibrium is around 50% for each isoform. However, in human blood, due to an affinity for human serum albumin (HSA), the equilibrium moves towards the carboxylate form, leaving only 3%-5% total CPT in the active lactone form, see Giovanella et al., Annals New York Academy of Sciences 922: 27-35, 2000. The double humanized mouse can act akin to a human in this respect. Higher and higher doses of CPT are administered starting with a dose of 0.5 mg/kg orally by gavage given daily for 5 days followed by 2 days of rest for 3 weeks. Animals are weighed twice a week and their weight recorded. Blood is taken twice a week and blood cells counted. If no toxicity is found, the dose is raised by 50% and the procedure repeated until toxicity is obtained.

In series [3] the test system is human tumors. Kind of series: human tumors xenotransplanted subcutaneously in humanized and non-humanized NSG mice, treated at MTD of CPT. The series is classed as in vivo, mouse. As to conditions: non-humanized vs humanized group, each at its own MTD. The procedure:
Once a maximum tolerated dose (MTD) for humanized NSG mice and MTD for non-humanized ones is obtained using the procedure described in Example 3, final validation experiments are performed. Six human tumors are xenotransplanted subcutaneously on the dorsal flank in humanized and non-humanized NSG mice. Once the tumors become palpable, the animals are treated with the MTD dose of CPT of their group, i.e., the humanized mice with the humanized MTD and the non-humanized mice with their MTD. The tumors are measured with calipers twice a week and the results recorded. […] A human dose for CPT can be determined and suitability of the drug for treatment of humans can be determined. The experiments can be performed substituting one or more drugs in place of CPT. The experiments can be performed using one or more drugs in addition to CPT. The experiments can be performed by using introduction of human leukemia cancer cells or other non-solid tumor human cancer cells into the rodent instead of xenotransplantation of solid tumors. Such cancers can be evaluated based on alternative metrics such as cell count.

Series [4] concerns human tumors. Kind of series: xenograft test repeated in mice with higher percentage of human bone marrow and hepatocytes. Type of series: in vivo, mouse. As to conditions: less humanized vs more humanized group. How it is done: The procedures in any one or combination of Examples 1-4 are performed with mice having a higher percentage of human bone marrow and hepatocytes. Rather than having a non-human control, the control can be instead, or in addition, mice having the percentage of human bone marrow (and/or human cord blood) used in the experimental group in the first performance of the procedures. Double humanized mice are further supplemented with human or humanized intestinal enzymes to form a triply humanized mouse (bone marrow, liver, and intestinal enzymes), which is then be used as a predictor of human response to anticancer agents. A mouse having humanized intestinal enzymes can be constructed, for example, as described in van Herwaarden et al., J. Clin. Invest., 117 (11):3583-3592, 2007. […] A human dose for CPT can be redetermined and suitability of the drug for treatment of humans can be redetermined.

human serum albumin (HSA), sequence (P02768 25-609): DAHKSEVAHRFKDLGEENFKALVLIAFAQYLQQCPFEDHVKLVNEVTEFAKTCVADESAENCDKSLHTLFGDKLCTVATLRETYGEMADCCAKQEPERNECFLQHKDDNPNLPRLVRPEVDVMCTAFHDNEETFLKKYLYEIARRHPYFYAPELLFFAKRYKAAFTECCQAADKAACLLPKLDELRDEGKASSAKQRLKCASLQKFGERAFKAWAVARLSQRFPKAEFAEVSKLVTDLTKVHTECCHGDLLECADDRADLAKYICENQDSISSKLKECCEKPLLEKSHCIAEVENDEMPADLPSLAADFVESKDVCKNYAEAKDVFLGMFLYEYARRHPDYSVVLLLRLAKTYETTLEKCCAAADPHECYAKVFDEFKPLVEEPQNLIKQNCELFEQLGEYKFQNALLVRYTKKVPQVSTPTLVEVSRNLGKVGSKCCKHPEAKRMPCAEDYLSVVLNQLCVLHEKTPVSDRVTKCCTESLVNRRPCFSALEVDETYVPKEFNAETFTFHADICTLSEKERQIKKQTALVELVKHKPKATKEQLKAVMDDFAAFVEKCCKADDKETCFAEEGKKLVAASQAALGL

On to `CC[C@@]1(O)C(=O)OCc2c1cc1n(c2=O)Cc2cc3ccccc3nc2-1` [CPT, Camptothecin], for which the “equilibrium share of each isoform (lactone and carboxylate)” value in series [1] is on record as “around 50%”. For the same compound, in series [2], the “total CPT in the active lactone form” value is 3%-5%. The “sensitivity of human bone marrow cells present in the mouse” value in the series with humanized NSG mice (human bone marrow cells vs mouse cells) is “more sensitive to camptothecin than mouse cells”. Besides, the “hematological toxicity of CPT” value in the series on humanized NSG mice (humanized NSG mice, relation to percentage of human bone marrow) is given as “directly proportional to the percentage of human bone marrow”. Moreover, in the series on humanized NSG mice (oral gavage from 0.5 mg/kg daily x5, 2 days rest, 3 weeks, dose raised by 50%, humanized vs non-humanized mice), the “toxicity of CPT for humanized mice” value is “Higher toxicity”. Also, the “anticancer activity (relative size of the tumors)” value was “much higher anticancer activity of CPT in the non-humanized group” in the series on human tumors [3] and “higher anticancer activity of CPT in the less humanized group” in the series with human tumors [4].
